Data as given in patent US20230416248A1, “COMPOUNDS AND USES THEREOF” (Foghorn Therapeutics Inc., priority 2020, published 2023).
pIC50: −log10 of the molar value.

How the values were obtained:
BRM = target: T1, BRM (Homo sapiens, UniProt P51531); assay: ATPase catalytic activity of BRM, ADP-Glo in vitro biochemical assay; conditions: for pIC50: ADP-Glo ATPase assay, 30 nM BRM, 400 μM ATP; for Ratio* (BRG1 IC50 (μM) divided by BRM IC50 (μM)): selectivity ratio BRG1 IC50 / BRM IC50
T1 construct: made in house; host or cells: High Five insect cells
T1 sequence (P51531 whole entry): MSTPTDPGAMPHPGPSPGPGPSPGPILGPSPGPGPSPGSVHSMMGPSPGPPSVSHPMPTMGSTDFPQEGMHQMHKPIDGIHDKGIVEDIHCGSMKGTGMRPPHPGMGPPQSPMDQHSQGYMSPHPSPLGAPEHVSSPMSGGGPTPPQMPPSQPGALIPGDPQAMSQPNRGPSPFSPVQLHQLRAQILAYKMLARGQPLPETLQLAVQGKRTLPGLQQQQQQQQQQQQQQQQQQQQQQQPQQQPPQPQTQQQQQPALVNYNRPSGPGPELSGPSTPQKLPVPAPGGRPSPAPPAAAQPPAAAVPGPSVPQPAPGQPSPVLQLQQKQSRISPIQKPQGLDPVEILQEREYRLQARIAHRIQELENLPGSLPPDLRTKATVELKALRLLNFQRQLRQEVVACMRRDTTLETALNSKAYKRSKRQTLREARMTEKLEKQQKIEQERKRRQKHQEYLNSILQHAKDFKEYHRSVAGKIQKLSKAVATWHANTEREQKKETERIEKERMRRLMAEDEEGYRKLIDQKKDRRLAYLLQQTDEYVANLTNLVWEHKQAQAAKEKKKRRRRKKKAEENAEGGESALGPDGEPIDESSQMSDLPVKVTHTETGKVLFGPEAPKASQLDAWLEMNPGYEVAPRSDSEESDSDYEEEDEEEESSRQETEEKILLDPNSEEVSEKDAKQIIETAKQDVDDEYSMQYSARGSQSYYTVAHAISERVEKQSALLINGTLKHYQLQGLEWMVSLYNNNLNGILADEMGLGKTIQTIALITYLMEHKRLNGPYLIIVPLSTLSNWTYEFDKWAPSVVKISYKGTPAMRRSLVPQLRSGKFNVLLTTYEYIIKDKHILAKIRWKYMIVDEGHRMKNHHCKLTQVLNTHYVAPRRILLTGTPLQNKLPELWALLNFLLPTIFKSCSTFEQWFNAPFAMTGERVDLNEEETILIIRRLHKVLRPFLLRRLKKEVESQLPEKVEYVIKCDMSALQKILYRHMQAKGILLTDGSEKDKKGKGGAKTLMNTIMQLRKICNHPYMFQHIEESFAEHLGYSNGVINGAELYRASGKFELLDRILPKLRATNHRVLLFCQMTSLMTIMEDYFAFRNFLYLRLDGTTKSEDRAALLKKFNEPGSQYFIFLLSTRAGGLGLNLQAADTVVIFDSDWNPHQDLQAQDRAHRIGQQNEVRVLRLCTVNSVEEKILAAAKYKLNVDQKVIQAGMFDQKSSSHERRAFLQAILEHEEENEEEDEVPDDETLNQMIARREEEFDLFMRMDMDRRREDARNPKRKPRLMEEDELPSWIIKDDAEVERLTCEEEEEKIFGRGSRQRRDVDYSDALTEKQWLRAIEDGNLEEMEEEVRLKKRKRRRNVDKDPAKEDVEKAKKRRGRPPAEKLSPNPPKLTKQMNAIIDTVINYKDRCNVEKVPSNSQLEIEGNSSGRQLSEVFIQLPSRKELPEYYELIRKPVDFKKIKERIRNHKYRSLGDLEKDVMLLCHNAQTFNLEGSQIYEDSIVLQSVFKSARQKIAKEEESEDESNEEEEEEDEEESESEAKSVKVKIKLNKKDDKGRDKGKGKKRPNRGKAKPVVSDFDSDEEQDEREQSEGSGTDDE
Procedure, shortened: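 Recombinant BRM (30 nM) hydrolysed 400 μM ATP with 20 nM salmon sperm DNA in pH 8 Tris buffer containing 20 mM MgCl2, 50 mM NaCl, 0.1% Tween-20 and 1 mM DTT, 1 h at room temperature. ADP formed was quantified by ADP-Glo luminescence.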

BRG-1 = target: T2, BRG-1 (Homo sapiens, UniProt P51532); assay: ATPase catalytic activity of BRG-1, ADP-Glo in vitro biochemical assay; conditions: ADP-Glo ATPase assay, 30 nM BRG-1, 400 μM ATP; read-out: BRG1 IC50
T2 construct: made in house; host or cells: High Five insect cells
T2 sequence (P51532 whole entry): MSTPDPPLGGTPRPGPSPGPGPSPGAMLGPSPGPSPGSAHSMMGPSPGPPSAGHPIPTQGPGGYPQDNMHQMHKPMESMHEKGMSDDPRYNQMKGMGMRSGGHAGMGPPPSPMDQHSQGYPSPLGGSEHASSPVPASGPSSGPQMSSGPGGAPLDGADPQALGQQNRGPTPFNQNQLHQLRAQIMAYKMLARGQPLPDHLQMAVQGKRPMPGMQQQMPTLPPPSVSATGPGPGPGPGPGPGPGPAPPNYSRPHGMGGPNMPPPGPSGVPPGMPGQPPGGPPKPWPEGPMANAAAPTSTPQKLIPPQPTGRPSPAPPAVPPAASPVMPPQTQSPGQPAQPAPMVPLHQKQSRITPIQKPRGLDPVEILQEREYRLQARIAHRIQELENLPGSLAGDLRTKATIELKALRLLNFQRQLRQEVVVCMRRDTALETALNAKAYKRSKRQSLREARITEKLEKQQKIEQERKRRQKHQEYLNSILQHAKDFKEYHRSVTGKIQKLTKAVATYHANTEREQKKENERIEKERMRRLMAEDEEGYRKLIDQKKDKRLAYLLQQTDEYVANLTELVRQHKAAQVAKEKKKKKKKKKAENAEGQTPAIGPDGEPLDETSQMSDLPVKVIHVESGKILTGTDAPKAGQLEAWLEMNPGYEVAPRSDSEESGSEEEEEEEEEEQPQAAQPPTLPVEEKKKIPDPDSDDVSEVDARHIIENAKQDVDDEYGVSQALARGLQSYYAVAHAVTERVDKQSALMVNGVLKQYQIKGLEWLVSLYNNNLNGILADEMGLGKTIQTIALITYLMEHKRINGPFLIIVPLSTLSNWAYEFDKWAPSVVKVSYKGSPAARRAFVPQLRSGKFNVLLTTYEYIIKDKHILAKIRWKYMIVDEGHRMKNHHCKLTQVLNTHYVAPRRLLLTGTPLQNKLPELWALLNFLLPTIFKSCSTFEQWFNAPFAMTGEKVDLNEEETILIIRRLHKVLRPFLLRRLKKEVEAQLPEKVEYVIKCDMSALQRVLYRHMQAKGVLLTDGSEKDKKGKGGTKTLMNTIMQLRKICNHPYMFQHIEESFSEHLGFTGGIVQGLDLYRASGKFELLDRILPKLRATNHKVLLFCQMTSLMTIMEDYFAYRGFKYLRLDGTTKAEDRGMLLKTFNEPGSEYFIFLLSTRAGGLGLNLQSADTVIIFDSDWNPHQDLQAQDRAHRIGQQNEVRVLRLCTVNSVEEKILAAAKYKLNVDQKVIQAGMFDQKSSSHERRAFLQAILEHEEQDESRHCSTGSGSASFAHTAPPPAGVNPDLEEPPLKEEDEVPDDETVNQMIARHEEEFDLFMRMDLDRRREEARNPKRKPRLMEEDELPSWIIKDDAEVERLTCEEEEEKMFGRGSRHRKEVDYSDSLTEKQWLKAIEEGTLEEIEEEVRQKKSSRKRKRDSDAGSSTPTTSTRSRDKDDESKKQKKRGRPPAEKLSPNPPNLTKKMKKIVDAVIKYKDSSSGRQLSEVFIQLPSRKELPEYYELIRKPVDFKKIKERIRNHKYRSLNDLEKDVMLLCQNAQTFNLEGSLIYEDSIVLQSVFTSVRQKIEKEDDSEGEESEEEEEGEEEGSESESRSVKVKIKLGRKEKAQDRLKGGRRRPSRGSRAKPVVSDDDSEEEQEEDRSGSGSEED
Procedure, shortened: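 BRG-1 ATPase activity was measured in vitro by ADP-Glo. After the reaction, ADP-Glo Reagent depleted unconsumed ATP (40 min, room temperature), then Kinase Detection Reagent converted product ADP to ATP (60 min, room temperature), and luciferase luminescence was read.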

| Compound | pIC50 (BRM) | Ratio* (BRG1 IC50 (μM) divided by BRM IC50 (μM)) (BRM) | pIC50 (BRG-1) |
| --- | --- | --- | --- |
| COC1CCOc2c(-c3ccc4cnc(CNC(=O)c5ccc6c(c5)S(=O)(=O)CCOC6)cc4n3)cccc21 (stereo not drawn) [Compound 168] | 7.03 | 9.35 | 6.06 |
| Cc1cc(-c2cccc(-c3ccc4cnc(CNC(=O)c5ccc6c(c5)S(=O)(=O)CCOC6)cc4n3)n2)cc(C)n1 [Compound 169] | 8.52 | 3.33 | 8.00 |
| O=C(NCc1cc2nc(-c3cccc(C4(F)CC(F)(F)C4)n3)ccc2cn1)c1ccc2c(c1)S(=O)(=O)CCOC2 [Compound 170] | 6.96 | 6.33 | 6.16 |
| COCCN1CCOc2c(-c3ccc4cnc(CNC(=O)c5ccc6c(c5)S(=O)(=O)CCOC6)cc4n3)cccc21 [Compound 172] | 8.04 | 11.42 | 6.98 |
| C[C@@H]1CN(c2cccc(-c3ccc4cnc(CNC(=O)c5ccc(Cl)c(S(C)(=O)=O)c5)cc4n3)n2)C[C@@H](C)O1 [Compound 177] | 7.80 | 14.02 | 6.65 |
| C[C@H]1CN(c2cccc(-c3ccc4cnc(CNC(=O)c5ccc(Cl)c(S(C)(=O)=O)c5)cc4n3)n2)C[C@H](C)O1 [Compound 179] | 7.48 | 11.49 | 6.42 |
| C[C@@H]1CN(c2nccc(-c3ccc4cnc(CNC(=O)c5ccc(Cl)c(S(C)(=O)=O)c5)cc4n3)n2)C[C@H](C)O1 [Compound 180] | 7.75 | 15.48 | 6.57 |
| C[C@@H]1CN(c2cncc(-c3ccc4cnc(CNC(=O)c5ccc(Cl)c(S(C)(=O)=O)c5)cc4n3)n2)C[C@H](C)O1 [Compound 182] | 7.35 | 9.47 | 6.37 |
| O=C(NCc1cc2nc(-c3cccc(N4CCC(F)(F)CC4)n3)ccc2cn1)c1ccc2c(c1)S(=O)(=O)CCOC2 [Compound 184] | 7.09 | 9.55 | 6.11 |
| CC(=O)N1CCOc2c(-c3ccc4cnc(CNC(=O)c5ccc6c(c5)S(=O)(=O)CCOC6)cc4n3)cccc21 [Compound 185] | 6.45 | 3.75 | 5.87 |

Further lines, results first:

| pIC50 (BRM) | Ratio* (BRG1 IC50 (μM) divided by BRM IC50 (μM)) (BRM) | pIC50 (BRG-1) | Compound |
| --- | --- | --- | --- |
| 7.28 | 9.52 | 6.30 | O=C(NCc1cc2nc(-c3cccc(C4CC(F)(F)C4)n3)ccc2cn1)c1ccc2c(c1)S(=O)(=O)CCOC2 [Compound 171] |
| 6.97 | 13.78 | 5.83 | C[C@@H]1[C@@H](c2cccc(-c3ccc4cnc(CNC(=O)c5ccc6c(c5)S(=O)(=O)CCOC6)cc4n3)n2)C1(F)F [Compound 173] |
| 7.54 | 9.24 | 6.58 | CN(c1cccc(-c2ccc3cnc(CNC(=O)c4ccc5c(c4)S(=O)(=O)CCOC5)cc3n2)n1)C1CCOCC1 [Compound 174] |
| 6.36 | 4.10 | 5.75 | CN1CCc2nc(-c3ccc4cnc(CNC(=O)c5ccc6c(c5)S(=O)(=O)CCOC6)cc4n3)ccc21 [Compound 176] |
| 6.74 | 7.72 | 5.86 | C[C@H]1COCCN1c1cccc(-c2ccc3cnc(CNC(=O)c4ccc5c(c4)S(=O)(=O)CCOC5)cc3n2)n1 [Compound 178] |
| 7.39 | 9.06 | 6.43 | C[C@@H]1COCCN1c1cccc(-c2ccc3cnc(CNC(=O)c4ccc5c(c4)S(=O)(=O)CCOC5)cc3n2)n1 [Compound 181] |
| 8.05 | 11.33 | 6.99 | O=C(NCc1cc2nc(-c3cccc(C4=CCOCC4)n3)ccc2cn1)c1ccc2c(c1)S(=O)(=O)CCOC2 [Compound 183] |
| 7.66 | 11.50 | 6.60 | O=C(NCc1cc2nc(-c3cccc(N4CCC(F)CC4)n3)ccc2cn1)c1ccc2c(c1)S(=O)(=O)CCOC2 [Compound 186] |
